According to patent US20030073618A1, “Compounds comprising disulfide-containing peptides and nitrogenous bases, and medical uses thereof” (priority 2001, published 2003):
Marks after values point to notes of the source that are not given here.

Columns and labels:
hepatitis C virus (HCV) = experiment: Efficacy study in chronic viral hepatitis C, 74 patients (Tables 54-55)
[1] = test system: white rats with DMNA-induced liver cirrhosis; experiment: Experimental dimethylnitrosamine (DMNA)-induced liver cirrhosis in rats; assay type: in vivo
Description: The method of Jezequel, A. M. et al. was used to induce liver cirrhosis in the rats. (Dimethylnitrosamine-induced cirrhosis. Evidence for an immunological mechanism. J. […] DMNA was dissolved by normal saline. To obtain considerable cirrhosis 4 such injection cycles were sufficient. For morphologic examination after narcotized euthanasia samples of liver tissue from central and right side lobes were taken. The liver samples were fixated by mixture of formalin, alcohol and acetic acid. […] The van-Gison stained samples where collagen fibers had red color were used for the study. […] By number of pixels forming the selected objects a relative square occupied by developed collagen (connective tissue) in the liver tissue was calculated. The measurement results were statistically processed. The difference significance between mean samples using the Student criterion with significance level of p=0.05. The morphological alterations were assessed on the samples with blind marking reducing risk of aggravation of the study results. The pathologic process and agent efficacy were assessed by clinical signs (weight, appearance, ascites, motional activity, death) as well as morphologic ones after animal necropsy with following morphologic liver sample examination. After development of pathologic process, i.e. in 4 weeks after the DMNA introduction onset, all animals were randomized in 4 groups of 12 animals in each. […] The agents were introduced every other day intramuscularly, in femur muscle.

[2] = month 2 (1 month after treatment)
[3] = month 4 (3 months after treatment)

With `Cc1cn([C@H]2C[C@H](N=[N+]=[N-])[C@@H](CO)O2)c(=O)[nH]c1=O` [Retrovir] the “ALT in Chronic HCV Infection” value (hepatitis C virus (HCV); Baseline (before treatment)) was 180 ± 20.0 U/L, the “ALT in Chronic HCV Infection” value (hepatitis C virus (HCV); month 1 (after treatment)) was “**132.0 ± 51.5 U/L” and the “ALT in Chronic HCV Infection” value (hepatitis C virus (HCV); [2]) was “**108 ± 40.3 U/L”. The “ALT in Chronic HCV Infection” value (hepatitis C virus (HCV); [3]) was “**90.0 ± 25.2 U/L”.
With `Nc1ccn([C@H]2CC[C@@H](CO)O2)c(=O)n1` [Zalzitabin] the “PCR (%) in Chronic HCV Infection” value (hepatitis C virus (HCV); Baseline (before treatment)) was 100%, the “PCR (%) in Chronic HCV Infection” value (hepatitis C virus (HCV); month 1 (after treatment)) was “**73.9* %” and the “PCR (%) in Chronic HCV Infection” value (hepatitis C virus (HCV); [2]) was “**56.5* %”. The “PCR (%) in Chronic HCV Infection” value (hepatitis C virus (HCV); [3]) was “**60.9* %”.
For `Cc1cn([C@H]2C[C@H](N=[N+]=[N-])[C@@H](CO)O2)c(=O)[nH]c1=O` [Zidovudine], the “PCR (%) in Chronic HCV Infection” value (hepatitis C virus (HCV); Baseline (before treatment)) was 100%, the “PCR (%) in Chronic HCV Infection” value (hepatitis C virus (HCV); month 1 (after treatment)) was “**54.5* %” and the “PCR (%) in Chronic HCV Infection” value (hepatitis C virus (HCV); [2]) was “**63.6* %”. The “PCR (%) in Chronic HCV Infection” value (hepatitis C virus (HCV); [3]) was “**59.1* %”.
For `C[S+](CC[C@H](N)C(=O)[O-])C[C@H]1O[C@@H](n2cnc3c(N)ncnc32)[C@H](O)[C@@H]1O` (some centres unmarked) [Heptral, S-adenosyl-methionine], the Rat weight ([1]; 1 treatment week) was 191.0 g, the Rat weight ([1]; 3 treatment weeks) was 212 g and the “Relative square of the connective tissue in a liver section” value ([1]; 3 weeks after cirrhosis modeling completion) was 8.215 ± 0.751%. For the same compound, the “Collagen amount lowered comparing to the normal saline control (times)” value ([1]; 6-week dosing) was 1.7 times, the Rat weight ([1]; 6 treatment weeks) was 232 g and the “Relative square of the connective tissue in a liver section” value ([1]; 6 weeks after cirrhosis modeling completion) was 7.781 ± 0.943 %. The “Decrease of liver fibrosis-formation rate” value ([1]; comparison agent) was 35% and the “Collagen amount lowered comparing to the normal saline control (times)” value ([1]; treatment for 3 weeks) was 1.1 times.
